Results on 10 compounds are retold here after patent publication US12539292B2, “BRM targeting compounds and associated methods of use” (Arvinas Operations, Inc., priority 2018, dated 2026).

The assay addresses T1, BRM (Homo sapiens, UniProt P51531).
T1 construct: In-Cell Western Screen of BRM Degradation in SW1573 Cells; endogenous in cells; host or cells: SW1573
Kind of assay: In-cell Western screen of BRM degradation in SW1573 cells (Dmax and DC50). The assay is classed as cell-based. Particulars: BRM degradation, SW1573 cells; for DC50: read-out: DC50; for Dmax: read-out: Dmax (%) (% degraded). The method, boiled down:
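Adherent SW1573 cultures exposed to test compounds for 18-20 h were processed for in-cell Western after PFA fixation and detergent permeabilization. BRM degradation was reported as Dmax and DC50.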

Setting [1] is: when tested at the top concentration of between 0.3 and 10 μM.

Some results are limits rather than exact numbers.

T1 sequence (P51531 whole entry): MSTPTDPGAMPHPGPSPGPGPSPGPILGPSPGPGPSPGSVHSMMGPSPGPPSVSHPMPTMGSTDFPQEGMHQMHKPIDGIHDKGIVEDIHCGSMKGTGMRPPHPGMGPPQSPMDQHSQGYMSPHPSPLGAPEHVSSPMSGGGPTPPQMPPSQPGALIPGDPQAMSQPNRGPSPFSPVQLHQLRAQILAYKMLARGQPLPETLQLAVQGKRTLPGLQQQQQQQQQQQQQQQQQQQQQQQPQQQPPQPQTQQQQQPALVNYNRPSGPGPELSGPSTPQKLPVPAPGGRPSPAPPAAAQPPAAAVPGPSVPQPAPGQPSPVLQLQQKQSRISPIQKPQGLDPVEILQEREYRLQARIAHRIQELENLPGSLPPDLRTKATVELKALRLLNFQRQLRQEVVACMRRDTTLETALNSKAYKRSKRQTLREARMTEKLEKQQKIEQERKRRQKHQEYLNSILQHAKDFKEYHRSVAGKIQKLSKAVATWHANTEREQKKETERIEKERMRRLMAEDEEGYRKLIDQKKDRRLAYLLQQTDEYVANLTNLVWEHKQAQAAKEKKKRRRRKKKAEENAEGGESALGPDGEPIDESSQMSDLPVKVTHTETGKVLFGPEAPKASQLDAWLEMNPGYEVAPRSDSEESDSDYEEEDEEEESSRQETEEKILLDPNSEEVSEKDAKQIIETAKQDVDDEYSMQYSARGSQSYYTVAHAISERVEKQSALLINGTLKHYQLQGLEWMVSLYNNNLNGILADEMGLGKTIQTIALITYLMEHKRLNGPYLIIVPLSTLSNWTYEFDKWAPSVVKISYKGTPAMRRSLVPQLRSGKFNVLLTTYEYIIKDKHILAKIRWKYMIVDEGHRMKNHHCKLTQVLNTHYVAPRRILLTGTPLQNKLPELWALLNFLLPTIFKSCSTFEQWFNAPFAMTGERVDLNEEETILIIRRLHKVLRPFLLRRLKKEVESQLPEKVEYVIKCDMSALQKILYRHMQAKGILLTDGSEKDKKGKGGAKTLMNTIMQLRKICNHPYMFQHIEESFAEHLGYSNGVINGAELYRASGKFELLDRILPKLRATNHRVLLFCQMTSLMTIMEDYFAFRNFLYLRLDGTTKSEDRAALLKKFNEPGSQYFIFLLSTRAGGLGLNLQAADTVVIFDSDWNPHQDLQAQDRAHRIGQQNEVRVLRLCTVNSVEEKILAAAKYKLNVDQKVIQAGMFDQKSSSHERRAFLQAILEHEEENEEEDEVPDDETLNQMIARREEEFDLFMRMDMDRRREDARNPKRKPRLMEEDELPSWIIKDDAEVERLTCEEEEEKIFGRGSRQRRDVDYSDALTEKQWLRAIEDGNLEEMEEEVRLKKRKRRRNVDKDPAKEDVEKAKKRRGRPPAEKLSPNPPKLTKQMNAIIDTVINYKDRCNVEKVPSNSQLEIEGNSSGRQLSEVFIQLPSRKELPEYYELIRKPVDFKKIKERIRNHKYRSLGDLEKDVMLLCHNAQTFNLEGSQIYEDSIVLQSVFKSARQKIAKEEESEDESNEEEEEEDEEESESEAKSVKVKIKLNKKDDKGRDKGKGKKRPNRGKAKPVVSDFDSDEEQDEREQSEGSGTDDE

By DC50 is commonly meant the midpoint of the concentration-degradation curve. The term Dmax denotes the greatest extent of degradation seen. On to `Cc1ncsc1-c1ccc([C@H](C)NC(=O)[C@@H]2C[C@@H](O)CN2C(=O)[C@@H](NC(=O)COC2CN(CCN3CCN(CCCc4cc(N5C6CCC5CN(c5cc(-c7ccccc7O)nnc5N)C6)ccn4)CC3)C2)C(C)(C)C)cc1` [compound 49, (2S,4R)-1-((2S)-2-(2-((1-(2-(4-(3-(4-(3-(3-amino-6-(2-hydroxyphenyl)pyridazin-4-yl)-3,8-diazabicyclo[3.2.1]octan-8-yl)pyridin-2-yl)propyl)piperazin-1-yl)ethyl)azetidin-3-yl)oxy)acetamido)-3,3-dimethylbutanoyl)-4-hydroxy-N-((S)-1-(4-(4-methylthiazol-5-yl)phenyl)ethyl)pyrrolidine-2-carboxamide], for which the DC50 was > 30 nM. In addition, the Dmax under setting [1] lay in the range of 50 to 75%.
Regarding `Cc1ncsc1-c1ccc([C@H](C)NC(=O)[C@@H]2C[C@@H](O)CN2C(=O)[C@@H](NC(=O)Cc2ccc(N3CCN(CCOCCCc4cc(N5C6CCC5CN(c5cc(-c7ccccc7O)nnc5N)C6)ccn4)CC3)nc2)C(C)(C)C)cc1` [compound 50, (2S,4R)-1-[(2S)-2-[2-[6-(4-[2-[3-(4-[3-[3-amino-6-(2-hydroxyphenyl)pyridazin-4-yl]-3,8-diazabicyclo[3.2.1]octan-8-yl]pyridin-2-yl)propoxy]ethyl]piperazin-1-yl)pyridin-3-yl]acetamido]-3,3-dimethylbutanoyl]-4-hydroxy-N-[(1S)-1-[4-(4-methyl-1,3-thiazol-5-yl)phenyl]ethyl]pyrrolidine-2-carboxamide], the DC50 fell in the range of 10 to 30 nM. The Dmax under setting [1] was > 75%.
For `Cc1ncsc1-c1ccc([C@H](C)NC(=O)[C@@H]2C[C@@H](O)CN2C(=O)[C@@H](NC(=O)COCCOCCOCCCCN2CCOC3(CCN(c4cc(-c5ccccc5O)nnc4N)CC3)C2)C(C)(C)C)cc1` [compound 51, (2S,4R)-1-[(2S)-2-(2-[2-[2-(4-[9-[3-amino-6-(2-hydroxyphenyl)pyridazin-4-yl]-1-oxa-4,9-diazaspiro[5.5]undecan-4-yl]butoxy)ethoxy]ethoxy]acetamido)-3,3-dimethylbutanoyl]-4-hydroxy-N-[(1S)-1-[4-(4-methyl-1,3-thiazol-5-yl)phenyl]ethyl]pyrrolidine-2-carboxamide] the same measures were 10 to 30 nM and > 75%.
For `Cc1ncsc1-c1ccc(CNC(=O)[C@@H]2C[C@@H](O)CN2C(=O)[C@@H](NC(=O)COCCOCCOCCOC/C=C/c2cc(N3C4CCC3CN(c3cc(-c5ccccc5O)nnc3N)C4)ccn2)C(C)(C)C)cc1` [compound 52, (2S,4R)-1-((S,E)-18-(4-(3-(3-amino-6-(2-hydroxyphenyl)pyridazin-4-yl)-3,8-diaza-bicyclo[3.2.1]octan-8-yl)pyridin-2-yl)-2-tert-butyl-4-oxo-6,9,12,15-tetraoxa-3-azaoctadec-17-en-1-oyl)-4-hydroxy-N-(4-(4-methylthiazol-5-yl)benzyl)pyrrolidine-2-carboxamide] the same measures were 10 to 30 nM and > 75%.
`Cc1ncsc1-c1ccc(CNC(=O)[C@@H]2C[C@@H](O)CN2C(=O)[C@@H](NC(=O)COCCOCCOCCOCCCc2cc(N3C4CCC3CN(c3cc(-c5ccccc5O)nnc3N)C4)ccn2)C(C)(C)C)cc1` [compound 53, (2S,4R)-1-((S)-18-(4-(3-(3-amino-6-(2-hydroxyphenyl)pyridazin-4-yl)-3,8-diaza-bicyclo[3.2.1]octan-8-yl)pyridin-2-yl)-2-tert-butyl-4-oxo-6,9,12,15-tetraoxa-3-azaoctadecan-1-oyl)-4-hydroxy-N-(4-(4-methylthiazol-5-yl)benzyl)pyrrolidine-2-carboxamide]: the DC50 was 2.5 to 10 nM. Under setting [1], the Dmax is > 75%.
For the compound `Cc1ncsc1-c1ccc([C@H](C)NC(=O)[C@@H]2C[C@@H](O)CN2C(=O)[C@H](c2onc(OCCN3CCN(CCOc4cc(N5C6CCC5CN(c5cc(-c7ccccc7O)nnc5N)C6)ccn4)CC3)c2Cl)C(C)C)cc1` [compound 54, (2S,4R)-1-((2S)-2-(3-(2-(4-(2-((4-(3-(3-amino-6-(2-hydroxyphenyl)pyridazin-4-yl)-3,8-diazabicyclo[3.2.1]octan-8-yl)pyridin-2-yl)oxy)ethyl)piperazin-1-yl)ethoxy)-4-chloroisoxazol-5-yl)-3-methylbutanoyl)-4-hydroxy-N-((S)-1-(4-(4-methylthiazol-5-yl)phenyl)ethyl)pyrrolidine-2-carboxamide], the DC50 was > 30 nM. Also, the Dmax under setting [1] is > 75%.
On the same counts, the results for `Cc1ncsc1-c1ccc([C@H](C)NC(=O)[C@@H]2C[C@@H](O)CN2C(=O)[C@@H](c2onc(OCCN3CCN(CCOc4cc(N5C6CCC5CN(c5cc(-c7ccccc7O)nnc5N)C6)ccn4)CC3)c2Cl)C(C)C)cc1` [compound 55, (2S,4R)-1-((2R)-2-(3-(2-(4-(2-((4-(3-(3-amino-6-(2-hydroxyphenyl)pyridazin-4-yl)-3,8-diazabicyclo[3.2.1]octan-8-yl)pyridin-2-yl)oxy)ethyl)piperazin-1-yl)ethoxy)-4-chloroisoxazol-5-yl)-3-methylbutanoyl)-4-hydroxy-N-((S)-1-(4-(4-methylthiazol-5-yl)phenyl)ethyl)pyrrolidine-2-carboxamide] are < 2.5 nM and > 75%.
Take `Cc1ncsc1-c1ccc(CNC(=O)[C@@H]2C[C@@H](O)CN2C(=O)C(c2cc(OCC=Cc3ccc(OC4CC(Oc5cc(N6C7CC[C@@H]6CN(c6cc(-c8ccccc8O)nnc6N)C7)ccn5)C4)cn3)no2)C(C)C)cc1` (stereo partly drawn) [compound 56, (2S,4R)-1-(2-(3-((3-(5-((1r,3r)-3-((4-(3-(3-amino-6-(2-hydroxyphenyl)pyridazin-4-yl)-3,8-diazabicyclo[3.2.1]octan-8-yl)pyridin-2-yl)oxy)cyclobutoxy)pyridin-2-yl)allyl)oxy)isoxazol-5-yl)-3-methylbutanoyl)-4-hydroxy-N-(4-(4-methylthiazol-5-yl)benzyl)pyrrolidine-2-carboxamide]: the DC50 is < 2.5 nM. For the same compound, the “Dmax (%) (% degraded)” value under setting [1] was “A (A > 75)”.
As for `Cc1ncsc1-c1ccc(CNC(=O)[C@H]2C[C@H](O)CN2C(=O)C(c2cc(OCCN3CCN(CCOc4cc(N5C6CCC5CN(c5cc(-c7ccccc7O)nnc5N)C6)ccn4)CC3)no2)C(C)C)cc1` (stereo partly drawn) [compound 57, (2R,4S)-1-(2-(3-(2-(4-(2-((4-(3-(3-amino-6-(2-hydroxyphenyl)pyridazin-4-yl)-3,8-diazabicyclo[3.2.1]octan-8-yl)pyridin-2-yl)oxy)ethyl)piperazin-1-yl)ethoxy)isoxazol-5-yl)-3-methylbutanoyl)-4-hydroxy-N-(4-(4-methylthiazol-5-yl)benzyl)pyrrolidine-2-carboxamide], the Dmax under setting [1] is < 50%.
For `Cc1ncsc1-c1ccc([C@H](C)NC(=O)[C@@H]2C[C@@H](O)CN2C(=O)[C@@H](NC(=O)Cc2ccc(N3CCN(CCO[C@H]4C[C@H](Oc5cc(N6C7CCC6CN(c6cc(-c8ccccc8O)nnc6N)C7)ccn5)C4)CC3)nc2)C(C)(C)C)cc1` [compound 58, (2S,4R)-1-((2S)-2-(2-(6-(4-(2-((1r,3r)-3-((4-(3-(3-amino-6-(2-hydroxyphenyl)pyridazin-4-yl)-3,8-diazabicyclo[3.2.1]octan-8-yl)pyridin-2-yl)oxy)cyclobutoxy)ethyl)piperazin-1-yl)pyridin-3-yl)acetamido)-3,3-dimethylbutanoyl)-4-hydroxy-N-((S)-1-(4-(4-methylthiazol-5-yl)phenyl)ethyl)pyrrolidine-2-carboxamide], the DC50 is > 30 nM. In addition, the Dmax under setting [1] was 50 to 75%.
